Measurements reported in patent US20230150974A1 (Foghorn Therapeutics Inc., priority 2020, published 2023).

Legend:
[1] = target: T1, HiBiT-BRM (Homo sapiens, UniProt P51531); assay: HiBiT-BRM cell-based degradation assay (Nano-Glo HiBiT Lytic Detection); details: HeLa cells expressing HiBiT-BRM, 24 h; for DC50: read-out: BRM HiBit Degradation IC50
T1 construct: expressed in transfected cells
In short: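 HeLa cells stably expressing HiBiT-tagged BRM were treated for 24 h, then lysed with LgBiT-containing Nano-Glo reagent and luminescence read. % degradation scaled between DMSO (high control) and 2 μM reference BRM/BRG1 degrader (low control).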

[2] = target: T2, HiBit-BRG1 (Homo sapiens, UniProt P51532); assay: HiBit-BRG1 cell-based degradation assay (Nano-Glo HiBiT Lytic Detection); details: HeLa cells expressing HiBit-BRG1 and LgBit, 24 h; for DC50: read-out: BRG1 HiBit Degradation IC50; for Dmax: read-out: BRG1 HiBit Degradation Maximum (%)
T2 construct: expressed in transfected cells
T2 sequence (P51532 whole entry): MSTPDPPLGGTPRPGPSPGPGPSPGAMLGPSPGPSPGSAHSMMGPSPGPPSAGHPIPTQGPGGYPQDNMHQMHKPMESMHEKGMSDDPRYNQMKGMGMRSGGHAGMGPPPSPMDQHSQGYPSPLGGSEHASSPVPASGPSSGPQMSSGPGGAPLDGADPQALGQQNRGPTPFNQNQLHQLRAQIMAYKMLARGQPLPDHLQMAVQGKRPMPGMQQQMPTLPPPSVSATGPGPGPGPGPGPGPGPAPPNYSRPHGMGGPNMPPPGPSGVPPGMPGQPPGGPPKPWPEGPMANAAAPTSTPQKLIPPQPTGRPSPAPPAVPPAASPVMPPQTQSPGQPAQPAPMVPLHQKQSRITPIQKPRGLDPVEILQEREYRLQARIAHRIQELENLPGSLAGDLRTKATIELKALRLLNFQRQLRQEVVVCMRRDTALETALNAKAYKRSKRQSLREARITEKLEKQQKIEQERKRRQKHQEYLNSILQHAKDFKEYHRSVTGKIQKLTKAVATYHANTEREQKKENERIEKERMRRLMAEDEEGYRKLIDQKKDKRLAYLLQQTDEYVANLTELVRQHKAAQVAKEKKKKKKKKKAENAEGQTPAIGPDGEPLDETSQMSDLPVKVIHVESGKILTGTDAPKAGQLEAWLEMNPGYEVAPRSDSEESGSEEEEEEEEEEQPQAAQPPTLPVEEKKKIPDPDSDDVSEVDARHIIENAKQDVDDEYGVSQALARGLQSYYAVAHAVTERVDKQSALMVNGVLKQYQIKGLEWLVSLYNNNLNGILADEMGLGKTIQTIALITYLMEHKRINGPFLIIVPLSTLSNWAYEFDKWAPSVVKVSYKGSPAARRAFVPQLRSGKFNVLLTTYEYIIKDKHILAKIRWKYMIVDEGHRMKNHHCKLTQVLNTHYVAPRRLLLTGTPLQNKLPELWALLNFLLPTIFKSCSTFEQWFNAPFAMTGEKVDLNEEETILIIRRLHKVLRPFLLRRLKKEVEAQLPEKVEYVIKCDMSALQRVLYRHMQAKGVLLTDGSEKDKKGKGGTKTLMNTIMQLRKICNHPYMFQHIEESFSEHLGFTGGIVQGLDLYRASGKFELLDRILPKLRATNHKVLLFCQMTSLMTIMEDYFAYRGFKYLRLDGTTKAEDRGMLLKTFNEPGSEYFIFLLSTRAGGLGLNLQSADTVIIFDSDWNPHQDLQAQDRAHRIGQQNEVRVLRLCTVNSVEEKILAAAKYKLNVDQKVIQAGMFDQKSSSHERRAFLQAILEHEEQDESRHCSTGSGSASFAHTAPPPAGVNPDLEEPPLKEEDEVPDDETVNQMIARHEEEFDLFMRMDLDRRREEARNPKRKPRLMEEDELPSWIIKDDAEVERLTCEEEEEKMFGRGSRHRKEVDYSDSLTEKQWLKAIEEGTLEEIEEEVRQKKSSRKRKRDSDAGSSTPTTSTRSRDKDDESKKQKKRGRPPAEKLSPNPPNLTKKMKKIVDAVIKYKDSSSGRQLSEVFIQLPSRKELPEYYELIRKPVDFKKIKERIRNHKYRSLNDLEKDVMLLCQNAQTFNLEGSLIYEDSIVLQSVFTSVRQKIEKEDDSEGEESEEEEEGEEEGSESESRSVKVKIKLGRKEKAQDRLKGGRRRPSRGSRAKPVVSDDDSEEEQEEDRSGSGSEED
In short: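 Stable HeLa line co-expressing HiBit-BRG1 and LgBit, 5000 cells/well, treated 24 h in a tissue culture incubator. Lysed with Nano-Glo HiBiT lytic reagent, luminescence read. % degradation normalized to DMSO (high control) and 2 μM reference BRM/BRG1 degrader (low control).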

T1 sequence (P51531 whole entry): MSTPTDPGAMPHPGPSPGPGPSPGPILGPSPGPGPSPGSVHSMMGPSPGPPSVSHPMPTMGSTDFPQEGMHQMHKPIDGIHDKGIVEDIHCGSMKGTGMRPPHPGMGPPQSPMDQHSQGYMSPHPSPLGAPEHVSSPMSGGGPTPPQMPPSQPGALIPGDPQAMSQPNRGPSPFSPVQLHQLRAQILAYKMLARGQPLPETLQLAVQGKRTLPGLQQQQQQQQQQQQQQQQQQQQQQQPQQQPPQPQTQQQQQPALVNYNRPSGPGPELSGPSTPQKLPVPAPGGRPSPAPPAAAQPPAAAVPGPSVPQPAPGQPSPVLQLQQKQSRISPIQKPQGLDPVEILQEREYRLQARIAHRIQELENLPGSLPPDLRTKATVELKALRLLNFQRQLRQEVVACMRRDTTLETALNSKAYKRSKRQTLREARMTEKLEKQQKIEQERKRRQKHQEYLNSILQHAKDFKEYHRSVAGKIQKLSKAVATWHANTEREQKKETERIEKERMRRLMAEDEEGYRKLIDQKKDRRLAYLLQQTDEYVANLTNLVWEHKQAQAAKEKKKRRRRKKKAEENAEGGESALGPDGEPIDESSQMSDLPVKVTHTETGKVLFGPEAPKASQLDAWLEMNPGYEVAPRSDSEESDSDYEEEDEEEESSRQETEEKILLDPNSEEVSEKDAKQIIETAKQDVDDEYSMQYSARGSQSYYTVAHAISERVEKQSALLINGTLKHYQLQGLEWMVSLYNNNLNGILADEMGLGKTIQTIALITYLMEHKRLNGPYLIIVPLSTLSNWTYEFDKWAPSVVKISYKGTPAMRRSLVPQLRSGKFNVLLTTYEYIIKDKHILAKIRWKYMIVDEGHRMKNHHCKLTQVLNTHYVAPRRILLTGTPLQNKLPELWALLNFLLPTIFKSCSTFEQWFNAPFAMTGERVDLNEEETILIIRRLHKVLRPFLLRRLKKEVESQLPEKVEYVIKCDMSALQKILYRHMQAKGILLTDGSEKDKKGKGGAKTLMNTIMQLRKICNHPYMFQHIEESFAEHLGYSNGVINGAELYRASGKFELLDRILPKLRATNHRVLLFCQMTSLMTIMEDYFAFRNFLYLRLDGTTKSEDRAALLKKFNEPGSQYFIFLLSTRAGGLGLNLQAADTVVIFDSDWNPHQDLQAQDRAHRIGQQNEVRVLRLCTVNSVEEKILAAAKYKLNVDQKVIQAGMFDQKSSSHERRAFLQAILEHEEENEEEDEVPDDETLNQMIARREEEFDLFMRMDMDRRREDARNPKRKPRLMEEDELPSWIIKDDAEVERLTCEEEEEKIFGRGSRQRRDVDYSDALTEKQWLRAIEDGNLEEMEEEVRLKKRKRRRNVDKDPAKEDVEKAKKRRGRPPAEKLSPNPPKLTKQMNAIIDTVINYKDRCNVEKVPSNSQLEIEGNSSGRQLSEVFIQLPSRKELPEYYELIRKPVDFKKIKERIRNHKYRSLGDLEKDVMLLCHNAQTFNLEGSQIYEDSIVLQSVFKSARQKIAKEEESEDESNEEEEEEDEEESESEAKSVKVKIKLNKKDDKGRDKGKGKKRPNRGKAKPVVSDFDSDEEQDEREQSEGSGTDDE

Structure (SMILES)	BRM HiBit Degradation Maximum (%) [1]	DC50 [1] [nM]	DC50 [2] [nM]	Dmax [2] [%]
Cc1ncsc1-c1ccc(CNC(=O)[C@@H]2C[C@@H](O)CN2C(=O)[C@@H](NC(=O)CCCCCCCCCCCCCC(=O)N(C)Cc2ccc(CCOc3cc(-c4ccccc4O)nnc3N)cc2)C(C)(C)C)cc1 [Compound 159, N1-(4-(2-((3-amino-6-(2-hydroxyphenyl)pyridazin-4-yl)oxy)ethyl)benzyl)-N15-((S)-1-((2S,4R)-4-hydroxy-2-((4-(4-methylthiazol-5-yl)benzyl)carbamoyl)pyrrolidin-1-yl)-3,3-dimethyl-1-oxobutan-2-yl)-N1-methylpentadecanediamide]	A (“A” indicates maximum degradation ≥75%)	> 10	> 1000	< 50
CN(CCc1ccc(CNCCN2CCN(c3cccc4c3C(=O)N(C3CCC(=O)NC3=O)C4=O)CC2)cc1)c1cc(-c2ccccc2O)nnc1N (centres unmarked) [Compound 160, 4-(4-(2-((4-(2-((3-amino-6-(2-hydroxyphenyl)pyridazin-4-yl)(methyl)amino)ethyl)benzyl)amino)ethyl)piperazin-1-yl)-2-(2,6-dioxopiperidin-3-yl)isoindoline-1,3-dione diformate]	B (“B” indicates maximum degradation ≥50%)	> 1000	> 1000	> 50
Cc1ncsc1-c1ccc(CNC(=O)[C@@H]2C[C@@H](O)CN2C(=O)[C@@H](NC(=O)COCCNC(=O)c2ccc(CCOc3cc(-c4ccccc4O)nnc3N)cc2)C(C)(C)C)cc1 [Compound 163, (2S,4R)-1-((S)-2-(2-(2-(4-(2-((3-amino-6-(2-hydroxyphenyl)pyridazin-4-yl)oxy)ethyl)benzamido)ethoxy)acetamido)-3,3-dimethylbutanoyl)-4-hydroxy-N-(4-(4-methylthiazol-5-yl)benzyl)pyrrolidine-2-carboxamide]	B (“B” indicates maximum degradation ≥50%)	> 1000	> 1000	< 50
Cc1ncsc1-c1ccc(CNC(=O)[C@@H]2C[C@@H](O)CN2C(=O)[C@@H](NC(=O)COCCOCC(=O)NCc2ccc(CCOc3cc(-c4ccccc4O)nnc3N)cc2)C(C)(C)C)cc1 [Compound 164, (2S,4R)-1-((S)-1-(4-(2-((3-amino-6-(2-hydroxyphenyl)pyridazin-4-yl)oxy)ethyl)phenyl)-12-(tert-butyl)-3,10-dioxo-5,8-dioxa-2,11-diazatridecan-13-oyl)-4-hydroxy-N-(4-(4-methylthiazol-5-yl)benzyl)pyrrolidine-2-carboxamide]	B (“B” indicates maximum degradation ≥50%)	> 1000	> 1000	< 50
Cc1ncsc1-c1ccc(CNC(=O)[C@@H]2C[C@@H](O)CN2C(=O)[C@@H](NC(=O)COCC(=O)NCc2ccc(CCOc3cc(-c4ccccc4O)nnc3N)cc2)C(C)(C)C)cc1 [Compound 165, (2S,4R)-1-((S)-2-(2-(2-((4-(2-((3-amino-6-(2-hydroxyphenyl)pyridazin-4-yl)oxy)ethyl)benzyl)amino)-2-oxoethoxy)acetamido)-3,3-dimethylbutanoyl)-4-hydroxy-N-(4-(4-methylthiazol-5-yl)benzyl)pyrrolidine-2-carboxamide]	A (“A” indicates maximum degradation ≥75%)	> 1000	> 1000	< 50
Nc1nnc(-c2ccccc2O)cc1NCCc1ccc(CNCCN2CCN(c3cccc4c3C(=O)N(C3CCC(=O)NC3=O)C4=O)CC2)cc1 (centres unmarked) [Compound 166, 4-(4-(2-((4-(2-((3-amino-6-(2-hydroxyphenyl)pyridazin-4-yl)amino)ethyl)benzyl)amino)ethyl)piperazin-1-yl)-2-(2,6-dioxopiperidin-3-yl)isoindoline-1,3-dione]	C (“C” indicates maximum degradation <50%)	> 1000	> 1000	< 50
Cc1ncsc1-c1ccc(CNC(=O)[C@@H]2C[C@@H](O)CN2C(=O)[C@@H](NC(=O)COCCOCCOCCOCCOCCNC(=O)c2ccc(CCOc3cc(-c4ccccc4O)nnc3N)cc2)C(C)(C)C)cc1 [Compound 167, (2S,4R)-1-((S)-1-(4-(2-((3-amino-6-(2-hydroxyphenyl)pyridazin-4-yl)oxy)ethyl)phenyl)-21-(tert-butyl)-1,19-dioxo-5,8,11,14,17-pentaoxa-2,20-diazadocosan-22-oyl)-4-hydroxy-N-(4-(4-methylthiazol-5-yl)benzyl)pyrrolidine-2-carboxamide]	B (“B” indicates maximum degradation ≥50%)	> 1000	> 1000	< 50
Cc1ncsc1-c1ccc(CNC(=O)[C@@H]2C[C@@H](O)CN2C(=O)[C@@H](NC(=O)COCCOCCOCCOCCOCC(=O)NCc2ccc(CCOc3cc(-c4ccccc4O)nnc3N)cc2)C(C)(C)C)cc1 [Compound 168, N1-(4-(2-((3-amino-6-(2-hydroxyphenyl)pyridazin-4-yl)oxy)ethyl)benzyl)-N17-((S)-1-((2S,4R)-4-hydroxy-2-((4-(4-methylthiazol-5-yl)benzyl)carbamoyl)pyrrolidin-1-yl)-3,3-dimethyl-1-oxobutan-2-yl)-3,6,9,12,15-pentaoxaheptadecanedia]	C (“C” indicates maximum degradation <50%)	> 1000	> 1000	< 50
Cc1ncsc1-c1ccc(CNC(=O)[C@@H]2C[C@@H](O)CN2C(=O)[C@@H](NC(=O)CCCCCCCCCCCCCC(=O)NCc2ccc(CCOc3cc(-c4ccccc4O)nnc3N)cc2)C(C)C)cc1 [Compound 169, N1-(4-(2-((3-amino-6-(2-hydroxyphenyl)pyridazin-4-yl)oxy)ethyl)benzyl)-N15-((S)-1-((2S,4R)-4-hydroxy-2-((4-(4-methylthiazol-5-yl)benzyl)carbamoyl)pyrrolidin-1-yl)-3-methyl-1-oxobutan-2-yl)pentadecanediamide]	B (“B” indicates maximum degradation ≥50%)	> 100	> 1000	< 50
Cc1ncsc1-c1ccc(CNC(=O)[C@@H]2C[C@@H](O)CN2C(=O)[C@@H](NC(=O)CCCCCCCCCNC(=O)c2ccc(CCOc3cc(-c4ccccc4O)nnc3N)cc2)C(C)C)cc1 [Compound 170, (2S,4R)-1-((10-(4-(2-((3-amino-6-(2-hydroxyphenyl)pyridazin-4-yl)oxy)ethyl)benzamido)decanoyl)-L-valyl)-4-hydroxy-N-(4-(4-methylthiazol-5-yl)benzyl)pyrrolidine-2-carboxamide]	C (“C” indicates maximum degradation <50%)	> 1000	> 1000	< 50
Cc1ncsc1-c1ccc([C@H](C)NC(=O)[C@@H]2C[C@@H](O)CN2C(=O)[C@@H](NC(=O)CCCCCCCCCNC(=O)c2ccc(CCOc3cc(-c4ccccc4O)nnc3N)cc2)C(C)(C)C)cc1 [Compound 171, (2S,4R)-1-((S)-2-(10-(4-(2-((3-amino-6-(2-hydroxyphenyl)pyridazin-4-yl)oxy)ethyl)benzamido)decanamido)-3,3-dimethylbutanoyl)-4-hydroxy-N-((S)-1-(4-(4-methylthiazol-5-yl)phenyl)ethyl)pyrrolidine-2-carboxamide]	A (“A” indicates maximum degradation ≥75%)	> 100	> 1000	> 50
